Experiments:
Assay in all cases: relative viability (nuclei count vs DMSO), 5 days (fraction); higher = more cells survive
ChaGo-K-1 = system: ChaGo-K-1
Summary of the method: (§1)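 Relative viability is defined as nuclei in treated wells over nuclei in vehicle wells. Duplicate plates were run and medians reported. Lung cancer cell lines in 1536-well plates were dosed by pin tool one day after seeding, with one drug or with a fixed anchor-drug dose plus five library-drug doses (not always all listed) in √10 steps, and nuclei were counted after 5 days.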

NCI-H2126 = system: NCI-H2126
Summary of the method: as §1

EPLC-272H = system: EPLC-272H
Summary of the method: as §1

SW 1573 = system: SW 1573
Summary of the method: as §1

NCI-H2023 = system: NCI-H2023
Summary of the method: as §1

NCI-H460 = system: NCI-H460
Summary of the method: as §1

NCI-H441 = system: NCI-H441
Summary of the method: as §1

NCI-H2170 = system: NCI-H2170
Summary of the method: as §1

LOU-NH91 = system: LOU-NH91
Summary of the method: as §1

NCI-H727 = system: NCI-H727
Summary of the method: as §1

NCI-H23 = system: NCI-H23
Summary of the method: as §1

NCI-H650 = system: NCI-H650
Summary of the method: as §1

NCI-H1437 = system: NCI-H1437
Summary of the method: as §1

LCLC-103H = system: LCLC-103H
Summary of the method: as §1

HOP-62 = system: HOP-62
Summary of the method: as §1

NCI-H2405 = system: NCI-H2405
Summary of the method: as §1

NCI-H2347 = system: NCI-H2347
Summary of the method: as §1

NCI-H1793 = system: NCI-H1793
Summary of the method: as §1

NCI-H2009 = system: NCI-H2009
Summary of the method: as §1

NCI-H647 = system: NCI-H647
Summary of the method: as §1

EMC-BAC-2 = system: EMC-BAC-2
Summary of the method: as §1

NCI-H520 = system: NCI-H520
Summary of the method: as §1

O=c1[nH]c2ccccc2n1C1CCN(CCCC(c2ccc(F)cc2)c2ccc(F)cc2)CC1 [Pimozide] + COc1cc2c(Oc3ccc(NC(=O)C4(C(=O)Nc5ccc(F)cc5)CC4)cc3F)ccnc2cc1OCCCN1CCOCC1 [Foretinib] (partner 0.25 µM)
relative viability (ChaGo-K-1; first compound 0.08 µM): 0.937 | relative viability (ChaGo-K-1; first compound 0.253 µM): 0.899 | relative viability (ChaGo-K-1; first compound 0.8 µM): 0.879 | relative viability (ChaGo-K-1; first compound 2.53 µM): 0.811 | relative viability (ChaGo-K-1; first compound 8 µM): 0.908 | relative viability (NCI-H2126; first compound 0.08 µM): 1.39 | relative viability (NCI-H2126; first compound 0.253 µM): 1.14 | relative viability (NCI-H2126; first compound 0.8 µM): 1.06 | relative viability (NCI-H2126; first compound 2.53 µM): 1.23 | relative viability (NCI-H2126; first compound 8 µM): 1.13 | relative viability (EPLC-272H; first compound 0.08 µM): 0.631 | relative viability (EPLC-272H; first compound 0.253 µM): 0.667 | relative viability (EPLC-272H; first compound 0.8 µM): 0.539 | relative viability (EPLC-272H; first compound 2.53 µM): 0.175 | relative viability (EPLC-272H; first compound 8 µM): 0.567 | relative viability (SW 1573; first compound 0.08 µM): 0.803 | relative viability (SW 1573; first compound 0.253 µM): 0.946 | relative viability (SW 1573; first compound 0.8 µM): 0.86 | relative viability (SW 1573; first compound 2.53 µM): 0.892 | relative viability (SW 1573; first compound 8 µM): 1.04 | relative viability (NCI-H2023; first compound 0.08 µM): 0.687 | relative viability (NCI-H2023; first compound 0.253 µM): 0.916 | relative viability (NCI-H2023; first compound 0.8 µM): 0.91 | relative viability (NCI-H2023; first compound 2.53 µM): 0.705 | relative viability (NCI-H2023; first compound 8 µM): 0.64 | relative viability (NCI-H460; first compound 0.08 µM): 0.973 | relative viability (NCI-H460; first compound 0.253 µM): 1.03 | relative viability (NCI-H460; first compound 0.8 µM): 0.872 | relative viability (NCI-H460; first compound 2.53 µM): 0.864 | relative viability (NCI-H460; first compound 8 µM): 0.867 | relative viability (NCI-H441; first compound 0.08 µM): 1.09 | relative viability (NCI-H441; first compound 0.253 µM): 1.16 | relative viability (NCI-H441; first compound 0.8 µM): 1.1 | relative viability (NCI-H441; first compound 2.53 µM): 0.948 | relative viability (NCI-H441; first compound 8 µM): 0.922 | relative viability (NCI-H2170; first compound 0.08 µM): 1.04 | relative viability (NCI-H2170; first compound 0.253 µM): 1.03 | relative viability (NCI-H2170; first compound 0.8 µM): 0.985 | relative viability (NCI-H2170; first compound 2.53 µM): 0.99 | relative viability (NCI-H2170; first compound 8 µM): 1.06 | relative viability (LOU-NH91; first compound 0.08 µM): 0.586 | relative viability (LOU-NH91; first compound 0.253 µM): 0.743 | relative viability (LOU-NH91; first compound 0.8 µM): 0.879 | relative viability (LOU-NH91; first compound 2.53 µM): 0.944 | relative viability (LOU-NH91; first compound 8 µM): 0.888 | relative viability (NCI-H727; first compound 0.08 µM): 0.679 | relative viability (NCI-H727; first compound 0.253 µM): 0.87 | relative viability (NCI-H727; first compound 0.8 µM): 0.798 | relative viability (NCI-H727; first compound 2.53 µM): 0.722 | relative viability (NCI-H727; first compound 8 µM): 0.782 | relative viability (NCI-H23; first compound 0.08 µM): 0.676 | relative viability (NCI-H23; first compound 0.253 µM): 1.07 | relative viability (NCI-H23; first compound 0.8 µM): 0.833 | relative viability (NCI-H23; first compound 2.53 µM): 0.712 | relative viability (NCI-H23; first compound 8 µM): 0.829 | relative viability (NCI-H650; first compound 0.08 µM): 1.07 | relative viability (NCI-H650; first compound 0.253 µM): 1.02 | relative viability (NCI-H650; first compound 0.8 µM): 1 | relative viability (NCI-H650; first compound 2.53 µM): 1.04 | relative viability (NCI-H650; first compound 8 µM): 1.04 | relative viability (NCI-H1437; first compound 0.08 µM): 1.27 | relative viability (NCI-H1437; first compound 0.253 µM): 1.21 | relative viability (NCI-H1437; first compound 0.8 µM): 1.21 | relative viability (NCI-H1437; first compound 2.53 µM): 1.28 | relative viability (NCI-H1437; first compound 8 µM): 1.18 | relative viability (LCLC-103H; first compound 0.08 µM): 0.946 | relative viability (LCLC-103H; first compound 0.253 µM): 0.716 | relative viability (LCLC-103H; first compound 0.8 µM): 0.747 | relative viability (LCLC-103H; first compound 2.53 µM): 0.678 | relative viability (LCLC-103H; first compound 8 µM): 0.591 | relative viability (HOP-62; first compound 0.08 µM): 1.05 | relative viability (HOP-62; first compound 0.253 µM): 1.14 | relative viability (HOP-62; first compound 2.53 µM): 1.04 | relative viability (HOP-62; first compound 8 µM): 1.03 | relative viability (NCI-H2405; first compound 0.08 µM): 1.03 | relative viability (NCI-H2405; first compound 0.253 µM): 1.02 | relative viability (NCI-H2405; first compound 0.8 µM): 1.04 | relative viability (NCI-H2405; first compound 2.53 µM): 0.961 | relative viability (NCI-H2405; first compound 8 µM): 0.838 | relative viability (NCI-H2347; first compound 0.08 µM): 0.883 | relative viability (NCI-H2347; first compound 0.253 µM): 0.622 | relative viability (NCI-H2347; first compound 0.8 µM): 0.964 | relative viability (NCI-H2347; first compound 2.53 µM): 1.35 | relative viability (NCI-H2347; first compound 8 µM): 1.07 | relative viability (NCI-H1793; first compound 0.253 µM): 0.691 | relative viability (NCI-H1793; first compound 0.8 µM): 0.462 | relative viability (NCI-H1793; first compound 2.53 µM): 0.582 | relative viability (NCI-H1793; first compound 8 µM): 0.521 | relative viability (NCI-H2009; first compound 0.08 µM): 1.24 | relative viability (NCI-H2009; first compound 0.253 µM): 1.12 | relative viability (NCI-H2009; first compound 0.8 µM): 1.19 | relative viability (NCI-H2009; first compound 2.53 µM): 1.09 | relative viability (NCI-H2009; first compound 8 µM): 1.13 | relative viability (NCI-H647; first compound 0.08 µM): 1.28 | relative viability (NCI-H647; first compound 0.253 µM): 1.17 | relative viability (NCI-H647; first compound 0.8 µM): 1.14 | relative viability (NCI-H647; first compound 2.53 µM): 1.22 | relative viability (NCI-H647; first compound 8 µM): 1.17 | relative viability (EMC-BAC-2; first compound 0.08 µM): 0.989 | relative viability (EMC-BAC-2; first compound 0.253 µM): 1.03 | relative viability (EMC-BAC-2; first compound 0.8 µM): 0.986 | relative viability (EMC-BAC-2; first compound 2.53 µM): 0.841 | relative viability (EMC-BAC-2; first compound 8 µM): 0.686 | relative viability (NCI-H520; first compound 0.08 µM): 0.886 | relative viability (NCI-H520; first compound 0.253 µM): 0.779 | relative viability (NCI-H520; first compound 0.8 µM): 0.618 | relative viability (NCI-H520; first compound 2.53 µM): 0.916 | relative viability (NCI-H520; first compound 8 µM): 0.898

Source: the supplement of paper PMC10307832
